In PMC8001704, “A Review of Red Yeast Rice, a Traditional Fermented Food in Japan and East Asia: Its Characteristic Ingredients and Application in the Maintenance and Improvement of Health in Lipid Metabolism and the Circulatory System” (Molecules, 2021):
Where two headings read alike, the source gives them in different places.

Assays:
[1] = design: method as in PMID 16256107, PMID 8930162; conditions: cited from earlier work
[2] = test system: presynaptic GABA receptors; design: method as in PMID 10369462, PMID 11906718; conditions: through reduction of adrenergic vasoconstriction; cited from earlier work
[3] = test system: Rabbits fed on a high-lipid diet; design: method as in PMID 1376794; conditions: cited from earlier work
[4] = test system: Mesenchymal stem cells derived from rat bone marrow; design: method as in PMID 17497701; conditions: cited from earlier work
[5] = test system: Patients with hypercholesterolemia; design: method as in PMID 9456275; conditions: cited from earlier work
[6] = design: method as in PMID 23675421, PMID 7830729; conditions: cited from earlier work
Cardiac myocytes = test system: Cardiac myocytes; design: method as in PMID 11444504; conditions: cited from earlier work
[7] = design: method as in PMID 27014344, doi:10.17546/msd.58298; conditions: cited from earlier work
[8] = test system: Human umbilical vein endothelial cells (HUVECs); design: method as in PMID 16141529; conditions: cited from earlier work
Hypertensive model mice = test system: Hypertensive model mice; design: method as in PMID 10405198; conditions: cited from earlier work
cholesterol synthesis = conditions: cited from earlier work
[9] = Pharmacokinetics of monacolin K in plasma after single oral administration of purified monacolin K or red yeast rice; type: in vivo, male SD rats; conditions: for AUC(0-t) / Cmax: male, SD, rat, po
Source text: Recently, we compared the pharmacokinetics of monacolin K in blood after oral administration of purified monacolin K (lactone form, 99% purity) and red yeast rice produced by solid-state fermentation in male SD rats (7 weeks old). Most of the monacolin K in the plasma was detected in its acid form: both in the monacolin K-administered group and the red yeast rice -administered group. […] The medicinal benefit of red yeast rice is considered to be different to that of monacolin K alone. […] Since red yeast rice contains various ingredients, synergistic effects are expected.
Figure 14 Plasma concentrations of lactone form and acid form of monacolin K after single administration of purified monacolin K or red yeast rice (40 mg/kg monacolin K or dose of red yeast rice equivalent to 40 mg/kg monacolin K) in male SD rats (7 weeks old). Each bar indicates the mean ± standard deviation, quantified according to the reference method.

experimental animals = test system: experimental animals; design: method as in PMID 22929438; conditions: Several studies using experimental animals; cited from earlier work
[10] = test system: Squamous epithelial cancer cells; design: method as in PMID 20562912; conditions: cited from earlier work
[11] = design: method as in PMID 27422746; conditions: cited from earlier work
[12] = test system: peroxisome proliferator-activated receptors (PPARs), e.g., PPARα; design: method as in PMID 24275089; conditions: cited from earlier work
[13] = plasma, single administration, 40 mg/kg monacolin K or equivalent, individual rats 101-103, 201-203, 40 mg/kg

NCCCC(=O)O [GABA, γ-amino butyric acid]
increases in blood pressure [1]: suppresses | sodium excretion from the kidneys [1]: promotes | effect on blood pressure [2]: hypotensive effect

CC[C@H](C)C(=O)O[C@H]1C[C@@H](C)C=C2C=C[C@H](C)[C@H](CC[C@@H]3C[C@@H](O)CC(=O)O3)[C@H]21 [Monacolin K, monacolin K]
Effect of Monacolin K, atheroma formation [3]: Decrease in number of plaques in the aorta and lung artery | Effect of Monacolin K, NOS signaling pathway [4]: Activation (phosphorylation) of AI3K/Akt pathway and MEK 1/2 pathway | Effect of Monacolin K, atheroma formation [5]: Inhibition of platelet aggregation, macrophage foam cell formation and LDL oxidation | oxidation of LDL [6]: inhibits | vascular endothelial function (vasoconstrictor reaction) ([6]; in hyperlipidemia): improves | Effect of Monacolin K, NOS signaling pathway (Cardiac myocytes): Increase of IL-1 induced production of nitrite (Increase in NOS expression and NO production mediated by Rho inhibition) | plasma viscosity [7]: decrease plasma viscosity | Effect of Monacolin K, atheroma formation [8]: Inhibition of NF-KB activation by CRP | Effect of Monacolin K, blood circulation (Hypertensive model mice): Increase in renal blood flow | inhibition of cholesterol synthesis (cholesterol synthesis): potent inhibitor of cholesterol synthesis | form in which most of the monacolin K in the plasma was detected ([9]; after oral administration, male SD rats): acid form | AUC(0-t) ([9]; plasma, 40 mg/kg, plasma, single administration, 40 mg/kg monacolin K or equivalent dose of red yeast rice, male SD rats, mean, read-out: AUC0–4h of monacolin K lactone, Mean): 2.48 ng·h/mL | Cmax ([9]; plasma, 40 mg/kg, plasma, single administration, 40 mg/kg monacolin K or equivalent dose of red yeast rice, male SD rats, mean, read-out: Cmax of monacolin K lactone, Mean): 2.48 ng/mL | AUC(0-t) ([9]; plasma, 40 mg/kg, plasma, single administration, 40 mg/kg monacolin K or equivalent, individual rats 101-103, 201-203, read-out: AUC0–4h of monacolin K lactone, individual animals): 3.11 ng·h/mL | Cmax ([9]; plasma, 40 mg/kg, plasma, single administration, 40 mg/kg monacolin K or equivalent, individual rats 101-103, 201-203, read-out: Cmax of monacolin K lactone, individual animals): 3.11 ng/mL | AUC0–4h of monacolin K lactone, individual animals [9, 13]: 1.85 ng·h/mL | Cmax of monacolin K lactone, individual animals [9, 13]: 1.85 ng/mL | Effect of Monacolin K, blood circulation (experimental animals): Increase in cerebral blood flow and cerebral vasomotor response | Effect of Monacolin K, NOS signaling pathway [10]: Induction of expression of Rho family proteins

C/C=C/C1=CC2=C(CO1)C(=O)[C@]1(C)OC(=O)[C@H](C(=O)CCCCCCC)[C@H]1C2 [ankaflavin]
LDL-cholesterol oxidation [11]: suppressed | action on PPARs, e.g., PPARα [12]: agonist

O=C1[C@H](CC[C@H](O)c2ccc(F)cc2)[C@@H](c2ccc(O)cc2)N1c1ccc(F)cc1 [ezetimibe]
plasma viscosity [7]: decrease plasma viscosity

C/C=C/C1=CC2=C(CO1)C(=O)[C@]1(C)OC(=O)[C@H](C(=O)CCCCC)[C@H]1C2 [monascin]
LDL-cholesterol oxidation [11]: suppressed | action on PPARs, e.g., PPARα [12]: agonist
